Measurements reported in US10111833B2, “Sildenafil sublingual spray formulations” (Insys Development Company, Inc., priority 2015, dated 2018).

Experiments:
[1] = Freeze/thaw stability testing; assay type: physicochemical; conditions: Drug Substance
Excerpt: The results are below in Tables 13-18.

[2] = Impurity formation / standard stability testing (clarity, color, pH, assay, impurities); assay type: physicochemical; conditions: Drug Substance
Excerpt: In order to further determine the stability of Formulations 1, 3A, 3B, 5A, 5B, 5C, 5D and 5E, the formulations were subjected to standard stability testing to determine impurity levels. The results are below in Tables 7-11.

## CCCc1nn(C)c2c(=O)[nH]c(-c3cc(S(=O)(=O)N4CCN(C)CC4)ccc3OCC)nc12 [Drug Substance, Sildenafil base]
[1]
  Color: colorless
  Physical appearance: clear
[2]
  Assay (% of initial Conc): 100.70%
  Impurity A: BQL (BQL = Below Quantification Limit (Limit of Quantification = 0.05%))
  Impurity B: ND (ND = Not Detected (Limit of Detection = 0.01%))
  Impurity C: BQL (BQL = Below Quantification Limit (Limit of Quantification = 0.05%))
  Impurity D: BQL (BQL = Below Quantification Limit (Limit of Quantification = 0.05%))
  Total Impurities: 0.00%
  Unknown Impurity RRT 0.24: ND (ND = Not Detected (Limit of Detection = 0.01%))
  Unknown Impurity RRT 0.61: ND (ND = Not Detected (Limit of Detection = 0.01%))
[2]; first line of cell (clarity)
  Physical appearance: clear,
[2]; second line of cell (color)
  Physical appearance: colorless
